Measured values taken from ChEMBL document CHEMBL3112450, “Synthesis and in vitro antitumor evaluation of primary amine substituted quinazoline linked benzimidazole” (Bioorg Med Chem Lett, 2014).

Tests used:
Type in all cases: functional
A549 [1] = test: Cytotoxicity against human A549 cells after 48 hrs by SRB assay; conditions: A549, 48 h
A549 [2] = test: Cytotoxicity against human A549 cells assessed as cell growth at 10^-7 M after 48 hrs by SRB assay; conditions: A549, 48 h, read-out: Activity
NCI-H23 = test: Cytotoxicity against human NCI-H23 cells assessed as growth inhibition at 10 uM after 48 hrs by SRB assay; conditions: NCI-H23, 48 h, read-out: GI
[3] = Cytotoxicity against human UACC257 cells assessed as cell growth at 10^-6 M after 48 hrs by SRB assay; conditions: UACC-257, 48 h, read-out: Activity
[4] = Cytotoxicity against human UACC257 cells after 48 hrs by SRB assay; conditions: UACC-257, 48 h
[5] = Cytotoxicity against human UACC257 cells assessed as cell growth at 10^-8 M after 48 hrs by SRB assay; conditions: UACC-257, 48 h, read-out: Activity
OVCAR-3 [6] = test: Cytotoxicity against human OVCAR3 cells assessed as cell growth at 10^-4 M after 48 hrs by SRB assay; conditions: OVCAR-3, 48 h, read-out: Activity
[7] = Cytotoxicity against human UACC257 cells assessed as cell growth at 10^-4 M after 48 hrs by SRB assay; conditions: UACC-257, 48 h, read-out: Activity
A549 [8] = test: Cytotoxicity against human A549 cells assessed as cell growth at 10^-4 M after 48 hrs by SRB assay; conditions: A549, 48 h, read-out: Activity
A549 [9] = test: Cytotoxicity against human A549 cells assessed as cell growth at 10^-8 M after 48 hrs by SRB assay; conditions: A549, 48 h, read-out: Activity
SNB-75 [10] = test: Cytotoxicity against human SNB75 cells assessed as cell growth at 10^-6 M after 48 hrs by SRB assay; conditions: SNB-75, 48 h, read-out: Activity
SNB-75 [11] = test: Cytotoxicity against human SNB75 cells assessed as cell growth at 10^-7 M after 48 hrs by SRB assay; conditions: SNB-75, 48 h, read-out: Activity
SNB-75 [12] = test: Cytotoxicity against human SNB75 cells assessed as cell growth at 10^-4 M after 48 hrs by SRB assay; conditions: SNB-75, 48 h, read-out: Activity
SNB-75 [13] = test: Cytotoxicity against human SNB75 cells assessed as cell growth at 10^-8 M after 48 hrs by SRB assay; conditions: SNB-75, 48 h, read-out: Activity
SK-MEL-28 = test: Cytotoxicity against human SK-MEL-28 cells assessed as growth inhibition at 10 uM after 48 hrs by SRB assay; conditions: SK-MEL-28, 48 h, read-out: GI
MDA-MB-468 = test: Cytotoxicity against human MDA-MB-468 cells assessed as growth inhibition at 10 uM after 48 hrs by SRB assay; conditions: MDA-MB-468, 48 h, read-out: GI
IGROV-1 = test: Cytotoxicity against human IGROV1 cells assessed as growth inhibition at 10 uM after 48 hrs by SRB assay; conditions: IGROV-1, 48 h, read-out: GI
RXF 393 = test: Cytotoxicity against human RXF393 cells assessed as growth inhibition at 10 uM after 48 hrs by SRB assay; conditions: RXF 393, 48 h, read-out: GI
CCRF-CEM = test: Cytotoxicity against human CCRF-CEM cells assessed as growth inhibition at 10 uM after 48 hrs by SRB assay; conditions: read-out: GI
K562 = test: Cytotoxicity against human K562 cells assessed as growth inhibition at 10 uM after 48 hrs by SRB assay; conditions: K562, 48 h, read-out: GI
MDA-MB-231 = test: Cytotoxicity against human MDA-MB-231 cells assessed as growth inhibition at 10 uM after 48 hrs by SRB assay; conditions: MDA-MB-231, 48 h, read-out: GI
[14] = Cytotoxicity against human UO31 cells assessed as growth inhibition at 10 uM after 48 hrs by SRB assay; conditions: UO-31, 48 h, read-out: GI
HT-29 = test: Cytotoxicity against human HT-29 cells assessed as growth inhibition at 10 uM after 48 hrs by SRB assay; conditions: HT-29, 48 h, read-out: GI
OVCAR-3 [15] = test: Cytotoxicity against human OVCAR3 cells assessed as growth inhibition at 10 uM after 48 hrs by SRB assay; conditions: OVCAR-3, 48 h, read-out: GI
PC-3 = test: Cytotoxicity against human PC3 cells assessed as growth inhibition at 10 uM after 48 hrs by SRB assay; conditions: PC-3, 48 h, read-out: GI
ACHN = test: Cytotoxicity against human ACHN cells assessed as growth inhibition at 10 uM after 48 hrs by SRB assay; conditions: read-out: GI
KM12 = test: Cytotoxicity against human KM12 cells assessed as growth inhibition at 10 uM after 48 hrs by SRB assay; conditions: KM12, 48 h, read-out: GI
A549 [16] = test: Cytotoxicity against human A549 cells assessed as growth inhibition at 10 uM after 48 hrs by SRB assay; conditions: A549, 48 h, read-out: GI
UACC-62 = test: Cytotoxicity against human UACC62 cells assessed as growth inhibition at 10 uM after 48 hrs by SRB assay; conditions: UACC-62, 48 h, read-out: GI
SF-268 = test: Cytotoxicity against human SF268 cells assessed as growth inhibition at 10 uM after 48 hrs by SRB assay; conditions: SF-268, 48 h, read-out: GI
SN12C = test: Cytotoxicity against human SN12C cells assessed as growth inhibition at 10 uM after 48 hrs by SRB assay; conditions: read-out: GI
M14 = test: Cytotoxicity against human M14 cells assessed as growth inhibition at 10 uM after 48 hrs by SRB assay; conditions: M14, 48 h, read-out: GI
SK-MEL-5 = test: Cytotoxicity against human SK-MEL-5 cells assessed as growth inhibition at 10 uM after 48 hrs by SRB assay; conditions: SK-MEL-5, 48 h, read-out: GI
SR = test: Cytotoxicity against human SR cells assessed as growth inhibition at 10 uM after 48 hrs by SRB assay; conditions: read-out: GI
COLO 205 = test: Cytotoxicity against human COLO205 cells assessed as growth inhibition at 10 uM after 48 hrs by SRB assay; conditions: COLO 205, 48 h, read-out: GI
MCF7 = test: Cytotoxicity against human MCF7 cells assessed as growth inhibition at 10 uM after 48 hrs by SRB assay; conditions: MCF7, 48 h, read-out: GI
NCI-H522 = test: Cytotoxicity against human NCI-H522 cells assessed as growth inhibition at 10 uM after 48 hrs by SRB assay; conditions: NCI-H522, 48 h, read-out: GI
HCT-15 = test: Cytotoxicity against human HCT15 cells assessed as growth inhibition at 10 uM after 48 hrs by SRB assay; conditions: HCT-15, 48 h, read-out: GI
SW-620 = test: Cytotoxicity against human SW620 cells assessed as growth inhibition at 10 uM after 48 hrs by SRB assay; conditions: SW-620, 48 h, read-out: GI
MOLT-4 = test: Cytotoxicity against human MOLT4 cells assessed as growth inhibition at 10 uM after 48 hrs by SRB assay; conditions: MOLT-4, 48 h, read-out: GI

Structure (SMILES): C=CCn1c(C)nc2ccc(Nc3nc(Nc4ccc5nc(C)n(CC=C)c5c4)c4ccccc4n3)cc21
- GI50 (A549 [1]): 1.72 µM
- TGI (A549 [1]): 3.22 µM
- growth at 0.1 µM (A549 [2]): 101%
- inhibition of growth at 10 µM (NCI-H23): 50%
- growth at 1 µM [3]: 84%
- GI50 [4]: 1.57 µM
- TGI [4]: 3.03 µM
- growth at 0.01 µM [5]: 90%
- growth at 100 µM (OVCAR-3 [6]): -48%
- growth at 100 µM [7]: -49%
- growth at 100 µM (A549 [8]): -14%
- growth at 0.01 µM (A549 [9]): 99%

Structure (SMILES): C=CCn1c(C)nc2cc(Nc3nc(Nc4ccc5nc(C)n(CC=C)c5c4)c4ccccc4n3)ccc21
- growth at 1 µM (SNB-75 [10]): 18%
- growth at 0.1 µM (SNB-75 [11]): 93%
- growth at 100 µM (SNB-75 [12]): -61%
- growth at 0.01 µM (SNB-75 [13]): 84%

Structure (SMILES): C=CCn1c(C)nc2ccc(Nc3nc(Nc4ccc(F)cc4)nc4ccccc34)cc21
- inhibition of growth at 10 µM (SK-MEL-28): 30%
- inhibition of growth at 10 µM (MDA-MB-468): 50%
- inhibition of growth at 10 µM (IGROV-1): 40%
- growth at 1 µM (SNB-75 [10]): 76%
- inhibition of growth at 10 µM (RXF 393): 30%
- inhibition of growth at 10 µM (CCRF-CEM): 70%
- GI50 (A549 [1]): 4.18 µM
- LC50 (A549 [1]): > 100 µM
- TGI (A549 [1]): 22.2 µM
- growth at 0.1 µM (A549 [2]): 97%
- inhibition of growth at 10 µM (K562): 70%
- inhibition of growth at 10 µM (NCI-H23): 40%
- growth at 1 µM [3]: 92%
- GI50 [4]: 13.1 µM
- LC50 (concentration killing 50% of cells) [4]: 68.3 µM
- TGI [4]: 29.9 µM
- inhibition of growth at 10 µM (MDA-MB-231): 30%
- inhibition of growth at 10 µM [14]: 50%
- inhibition of growth at 10 µM (HT-29): 70%
- inhibition of growth at 10 µM (OVCAR-3 [15]): 40%
- inhibition of growth at 10 µM (PC-3): 50%
- inhibition of growth at 10 µM (ACHN): 30%
- inhibition of growth at 10 µM (KM12): 50%
- inhibition of growth at 10 µM (A549 [16]): 40%
- inhibition of growth at 10 µM (UACC-62): 30%
- inhibition of growth at 10 µM (SF-268): 30%
- growth at 0.1 µM (SNB-75 [11]): 80%
- inhibition of growth at 10 µM (SN12C): 30%
- inhibition of growth at 10 µM (M14): 50%
- inhibition of growth at 10 µM (SK-MEL-5): 50%
- inhibition of growth at 10 µM (SR): 70%
- growth at 0.01 µM [5]: 98%
- inhibition of growth at 10 µM (COLO 205): 50%
- inhibition of growth at 10 µM (MCF7): 70%
- growth at 100 µM (OVCAR-3 [6]): -90%
- growth at 100 µM (SNB-75 [12]): -57%
- growth at 100 µM [7]: -73%
- inhibition of growth at 10 µM (NCI-H522): 40%
- growth at 100 µM (A549 [8]): -49%
- growth at 0.01 µM (A549 [9]): 94%
- inhibition of growth at 10 µM (HCT-15): 50%
- inhibition of growth at 10 µM (SW-620): 50%
- growth at 0.01 µM (SNB-75 [13]): 76%

Structure (SMILES): C=CCn1c(C)nc2cc(Nc3nc(NCCO)nc4ccccc34)ccc21
- inhibition of growth at 10 µM (MDA-MB-468): 40%
- inhibition of growth at 10 µM (K562): 30%
- inhibition of growth at 10 µM (MOLT-4): 40%
- inhibition of growth at 10 µM (MDA-MB-231): 30%
- inhibition of growth at 10 µM [14]: 30%
- inhibition of growth at 10 µM (HT-29): 30%
- inhibition of growth at 10 µM (PC-3): 30%
- inhibition of growth at 10 µM (KM12): 30%
- inhibition of growth at 10 µM (SK-MEL-5): 30%
- inhibition of growth at 10 µM (SR): 30%
- inhibition of growth at 10 µM (COLO 205): 50%
- inhibition of growth at 10 µM (MCF7): 30%
- inhibition of growth at 10 µM (SW-620): 30%

Structure (SMILES): C=CCn1c(C)nc2ccc(Nc3nc(Sc4ccc(N)cc4)nc4ccccc34)cc21
- inhibition of growth at 10 µM (CCRF-CEM): 30%
